Data published in the NIST ThermoML archive (doi:10.1021/je700281z).
± gives the expanded uncertainty stated by the source.

How the values were obtained:
[1] = 101.33 kPa, Liquid; for speed of sound: sound analyzer
[2] = xn = mol fraction of the nth substance listed; details: 101 kPa, Liquid

COCCOCCO [2-(2-methoxyethoxy)ethanol]
[1]
Details	mass density [kg/m3]	speed of sound [m/s]
293.15 K	1019.81 ± 1.1	1432.4 ± 2
298.15 K	1015.41 ± 1.1	1415.2 ± 2
303.15 K	1010.91 ± 1.1	1397.9 ± 2

COCCOCCO [2-(2-methoxyethoxy)ethanol] + CCCCO
[2]
Details	mass density [kg/m3]
293.15 K, x1 = 0.0535	823.612 ± 0.85
293.15 K, x1 = 0.1527	848.542 ± 0.8
293.15 K, x1 = 0.2	860.004 ± 0.78
293.15 K, x1 = 0.2003	860.091 ± 0.78
293.15 K, x1 = 0.2518	872.235 ± 0.77
293.15 K, x1 = 0.3009	883.531 ± 0.75
293.15 K, x1 = 0.3032	884.084 ± 0.75
293.15 K, x1 = 0.3546	895.622 ± 0.74
293.15 K, x1 = 0.399	905.367 ± 0.74
293.15 K, x1 = 0.4007	905.744 ± 0.74
293.15 K, x1 = 0.4522	916.775 ± 0.74
293.15 K, x1 = 0.5012	927.038 ± 0.74
293.15 K, x1 = 0.5527	937.589 ± 0.75
293.15 K, x1 = 0.5978	946.625 ± 0.76
293.15 K, x1 = 0.6019	947.427 ± 0.77
293.15 K, x1 = 0.6526	957.368 ± 0.78
293.15 K, x1 = 0.6961	965.704 ± 0.8
293.15 K, x1 = 0.7503	975.858 ± 0.83
293.15 K, x1 = 0.7973	984.5 ± 0.86
293.15 K, x1 = 0.8492	993.819 ± 0.89
293.15 K, x1 = 0.8978	1002.37 ± 0.94
293.15 K, x1 = 0.947	1010.88 ± 1
298.15 K, x1 = 0.053	819.639 ± 0.86
298.15 K, x1 = 0.1019	832.026 ± 0.83
298.15 K, x1 = 0.1502	843.949 ± 0.81
298.15 K, x1 = 0.2028	856.65 ± 0.79
298.15 K, x1 = 0.2523	868.3 ± 0.78
298.15 K, x1 = 0.3497	890.395 ± 0.76
298.15 K, x1 = 0.454	912.946 ± 0.75
298.15 K, x1 = 0.5507	932.958 ± 0.76
298.15 K, x1 = 0.6013	943.061 ± 0.78
298.15 K, x1 = 0.648	952.194 ± 0.79
298.15 K, x1 = 0.6994	962.043 ± 0.81
298.15 K, x1 = 0.7465	970.86 ± 0.83
298.15 K, x1 = 0.7505	971.594 ± 0.84
298.15 K, x1 = 0.7968	980.073 ± 0.86
298.15 K, x1 = 0.7977	980.251 ± 0.86
298.15 K, x1 = 0.8465	988.996 ± 0.9
298.15 K, x1 = 0.8486	989.382 ± 0.9
298.15 K, x1 = 0.8987	998.178 ± 0.94
298.15 K, x1 = 0.899	998.234 ± 0.94
298.15 K, x1 = 0.9481	1006.69 ± 1
298.15 K, x1 = 0.9483	1006.72 ± 1
303.15 K, x1 = 0.0508	815.157 ± 0.87
303.15 K, x1 = 0.1014	827.941 ± 0.84
303.15 K, x1 = 0.1471	839.22 ± 0.82
303.15 K, x1 = 0.2015	852.303 ± 0.8
303.15 K, x1 = 0.2528	864.365 ± 0.79
303.15 K, x1 = 0.3048	876.239 ± 0.78
303.15 K, x1 = 0.3503	886.405 ± 0.77
303.15 K, x1 = 0.3555	887.558 ± 0.77
303.15 K, x1 = 0.4005	897.361 ± 0.76
303.15 K, x1 = 0.4503	908.007 ± 0.76
303.15 K, x1 = 0.4981	917.96 ± 0.77
303.15 K, x1 = 0.5518	928.933 ± 0.77
303.15 K, x1 = 0.5996	938.439 ± 0.79
303.15 K, x1 = 0.648	947.877 ± 0.8
303.15 K, x1 = 0.6991	957.619 ± 0.82
303.15 K, x1 = 0.7497	967.071 ± 0.85
303.15 K, x1 = 0.7954	975.414 ± 0.87
303.15 K, x1 = 0.8491	985.035 ± 0.91
303.15 K, x1 = 0.8964	993.318 ± 0.94
303.15 K, x1 = 0.9513	1002.75 ± 1

CCCCOCCOCCO [3,6-dioxa-1-decanol]
[1]
Details	mass density [kg/m3]	speed of sound [m/s]
293.15 K	952.196 ± 1.1	1374.3 ± 2
298.15 K	948.103 ± 1.1	1357 ± 2
303.15 K	943.743 ± 1.1	1340 ± 2
